Laboratory results as given in patent US12723233B2, “Media and methods for differentiating natural killer cells” (STEMCELL Technologies Canada Inc., priority 2018, dated 2026).
“Also recorded” adds a separate entry of the source.

Assays:
[1] = tested on: K562 target cells; assay: Calcein AM release cytotoxicity assay of differentiated CD56+ NK cells; assay type: cell-based; conditions: cells differentiated in the presence of 1 μM UM729, day 28; effector to target ratio 5:1, 4 hours
Method: CD56^+ NK cells were differentiated as described in Examples 1 and 2 in the presence of 1 μM UM729 and analyzed on day 28 for their cytotoxicity toward K562 target cells.
For the cytotoxicity assay, the in vitro generated CD56^+ NK cells were co-cultured with Calcein AM labeled K562 cells for 4 hours at a ratio of 5:1 for effector cells (NK cells) to target cells (K562 cells), and supernatants were analysed for the release of fluorescent Calcein from killed target cells.
Peripheral blood (PB) NK cells and Monocytes isolated using EasySep™ (STEMCELL Technologies, Catalogue #17955 and 19359, respectively) were also co-cultured with labelled K562 cells as positive and negative controls, respectively, at the same ratios described above.
To detect spontaneous release of calcein, control wells containing only calcein AM-labeled K562 target cells were set up. The labeled K562 cells were treated with 1% Triton™ X-100 to measure maximum release. After incubation, plates were centrifuged at 500×g for 5 minutes and 100 μL of supernatant was transferred to black plates and analyzed using a SpectraMax® microplate reader (excitation 485 nm/emission 530 nm). Results are expressed as % specific lysis: [(test release−spontaneous release)×100]/(maximum release−spontaneous release).

[2] = tested on: PSC-derived NK cell progenitors; assay: Differentiation of PSC-derived NK cell progenitors to CD56+ cells; assay type: cell-based, Human; conditions: PSC lines 1C, M001, H1, F016; UM729 during days 24 to 38
Method: Three induced pluripotent stem cell (iPSC) lines—WLS-1C, STiPSC M001, and STiPS F016—and one embryonic stem cell (ESC) line—H1 were maintained in mTeSR™ 1. The PSC were harvested and dissociated using accutase into single cell suspensions and were filtered using 37 μm reversible strainer (STEMCELL Technologies).
Single cell suspensions of PSC were seeded into AggreWell plates (STEMCELL Technologies) to form 500-cell aggregates. The seeded cells were cultured in a mesoderm differentiation medium and 10 μM Y027632 (STEMCELL Technologies). After 3 days (i.e. on day 3) in culture the medium was changed to induce hematopoietic lineage differentiation. After 7 days (i.e. on day 10) in culture the aggregates were harvested and dissociated using collagenase II and a trypsin-containing solution.
Dissociated cells were enriched for CD34^+ cells using EasySep™ Human CD34 Positive Selection Kit II (STEMCELL Technologies, catalogue #17856). […]
The cells were stained for CD56 essentially as described in Example 3 and analyzed for frequency of CD56^+ cells and yield of CD56^+ cells per 5×10^4 input PSC-derived CD34^+ cells. […]

[3] = tested on: differentiated CD56+ NK cells; assay: Flow cytometry of NK cell, maturity and T cell markers on differentiated CD56+ NK cells at day 28; assay type: cell-based, Human
Method: CD56^+ NK cells were differentiated as described in Examples 1 and 2 in the presence of 1 μM UM729 and analyzed on day 28 by flow cytometry for the expression of known NK cell markers. Cells were stained with fluorescence-conjugated antibodies against indicated NK cell markers for 15 min at 4° C. Non-specific binding was blocked using FcR blocker and 5% human or rat serum. Dead cells were excluded by light scatter profile and 7-AAD or DRAQ7 staining. Prepared samples were analyzed by flow cytometry.
CD56^+ NK cells were differentiated as described in Examples 1 and 2 in the presence of 1 μM UM729 and analyzed on day 28 by flow cytometry for the expression of known NK cell markers. The cells were stained for the markers described in this Example essentially as described in Example 3. Staining for KIR molecules was performed using a combination of two clones for the antibody, 180704 and HP-MA4, as each recognizes a distinct subset of KIR molecules. Dead cells were excluded by light scatter profile and 7-AAD or DRAQ7 staining.
Production of IFNγ by the differentiated CD56^+ NK cells was also measured. For IFNγ intracellular staining, differentiated CD56^+ NK Cells were stimulated with PMA/Ionomycin for 2 hours. Brefeldin A was added and the cells were incubated for another 2 hours. The cells were harvested and stained for CD56 and Zombie NIR viability dye then fixed, permeabilized and stained for intracellular IFNγ.
CD56^+ NK cells were differentiated as described in Examples 1 and 2 in the presence of pyrimidoindole compounds and analyzed on day 28 by flow cytometry for the expression of a T cell marker. The analyzed cells were stained for CD3 essentially as described in Example 3. Dead cells were excluded by light scatter profile and 7-AAD or DRAQ7 staining.

[4] = tested on: PSC-derived CD34+ cells; assay: Differentiation of PSC-derived CD34+ cells into CD5+CD7+ NK cell progenitors; assay type: cell-based, Human; conditions: 1 μM UM729 during days 10 to 24; PSC lines 1C, M001, H1, F016
Method: PSC-derived […] cells were generated as described in Example 11. The PSC-derived […] cells were cultured as described in Example 11, except the effect of the presence or absence of 1 μM UM729 on the differentiation of a population of NK cell progenitors was assessed. The cells were stained for CD5 and CD7 essentially as described in Example 3 and analyzed for frequency of CD5^+CD7^+ cells and yield of CD5^+CD7^+ cells per 5×10^4 input PSC-derived […] cells. Both the frequency (FIG. 15A) and yield (FIG. 15B) of CD5^+CD7^+ cells decreased after culturing the PSC-derived […] cells in the presence of UM729, as compared to culturing such cells in the absence of UM729. Therefore, the presence of UM729 during days 10 to 24 of culturing PSC-derived […] cells decreases the frequency and yield of CD5^+CD7^+ NK progenitor cells.

[5] = cells differentiated in the presence of 1 μM UM729, day 28

## COC(=O)c1ccc2c(c1)[nH]c1ncnc(NCCCN3CCCCC3)c12 [UM729, methyl 4-((3-(piperidin-1-yl)propyl)amino)-9H-pyrimido[4,5-b]indole-7-carboxylate]
[1]
  Cytotoxicity (killing ability) of differentiated NK cells toward K562 target cells: able to kill K562 target cells
[2]
  Frequency of CD56+ cells compared to absence of UM729: increased
  Yield of CD56+ cells per 5×10^4 input PSC-derived CD34+ cells compared to absence of UM729: increased
[3]; [5]
  Analyzed cells co-expressing CD56 and CD16: approximately 17%
  Analyzed cells co-expressing CD56 and CD94: approximately 18%
  Analyzed cells co-expressing CD56 and KIR: approximately 10%
  Analyzed cells co-expressing CD56 and NKG2D: approximately 50%
  Analyzed cells co-expressing CD56 and NKp30: approximately 80%
  Analyzed cells co-expressing CD56 and NKp44: approximately 80%
  Analyzed cells co-expressing CD56 and NKp46: approximately 70%
[3]; cells differentiated in the presence of 1 μM UM729, PMA/Ionomycin 2 hours, then Brefeldin A 2 hours
  Differentiated CD56+ NK cells expressing intracellular IFNγ upon stimulation: approximately 58%
[3]; cord blood sample of a second donor, 1 μM UM729, day 28
  Expression of CD3 among differentiated cells: virtually absent; also recorded: do not express CD3
[4]
  Frequency of CD5+CD7+ cells compared to absence of UM729: decreased
  Yield of CD5+CD7+ cells per 5×10^4 input PSC-derived cells compared to absence of UM729: decreased
